According to the NIST ThermoML archive (doi:10.1016/j.jct.2017.02.022):
Numbers after ± are expanded uncertainties.

How the values were obtained:
[1] = refractive index (Na D-line) (dimensionless); xn = mol fraction of the nth substance listed; details: 101.3 kPa, Liquid, Standard Abbe refractometry
[2] = xn = mol fraction of the nth substance listed; details: 101.3 kPa, Liquid; for speed of sound: Frequency=3 MHz, Sing-around technique in a fixed-path interferometer; for mass density: Vibrating tube method

COS(=O)(=O)[O-].Cn1cc[n+](C)c1 [1,3-dimethylimidazolium methylsulfate] + CCCCCO
Details | mass density, [2] [kg/m3] | refractive index, [1] | speed of sound, [2] [m/s]
298 K, x1 = 0.1 | 884 ± 2 | 1.417 ± 0.01 | 1311 ± 20
298 K, x1 = 0.35 | 1041 ± 2 | 1.439 ± 0.01 | 1448 ± 20
298 K, x1 = 0.54 | 1140 ± 2 | 1.454 ± 0.01 | 1552 ± 20
298 K, x1 = 0.661 | 1195 ± 3 | 1.463 ± 0.01 | 1618 ± 20
298 K, x1 = 0.79 | 1250 ± 3 | 1.471 ± 0.01 | 1672 ± 20
298 K, x1 = 0.931 | 1304 ± 3 | 1.479 ± 0.01 | 1751 ± 20
298 K, x1 = 1 | 1329 ± 4 | 1.483 ± 0.01 | 1811 ± 20
303 K, x1 = 0.1 | 879 ± 2 | 1.416 ± 0.01 | 1295 ± 20
303 K, x1 = 0.35 | 1035 ± 2 | 1.438 ± 0.01 | 1432 ± 20
303 K, x1 = 0.54 | 1134 ± 2 | 1.452 ± 0.01 | 1536 ± 20
303 K, x1 = 0.661 | 1189 ± 3 | 1.461 ± 0.01 | 1603 ± 20
303 K, x1 = 0.79 | 1243 ± 3 | 1.469 ± 0.01 | 1659 ± 20
303 K, x1 = 0.931 | 1298 ± 3 | 1.477 ± 0.01 | 1738 ± 20
303 K, x1 = 1 | 1322 ± 4 | 1.481 ± 0.01 | 1799 ± 20
308 K, x1 = 0.1 | 875 ± 2 | 1.414 ± 0.01 | 1278 ± 20
308 K, x1 = 0.35 | 1031 ± 2 | 1.436 ± 0.01 | 1417 ± 20
308 K, x1 = 0.54 | 1129 ± 2 | 1.451 ± 0.01 | 1521 ± 20
308 K, x1 = 0.661 | 1185 ± 3 | 1.459 ± 0.01 | 1588 ± 20
308 K, x1 = 0.79 | 1239 ± 3 | 1.467 ± 0.01 | 1645 ± 20
308 K, x1 = 0.931 | 1294 ± 3 | 1.476 ± 0.01 | 1725 ± 20
308 K, x1 = 1 | 1319 ± 4 | 1.48 ± 0.01 | 1787 ± 20
313 K, x1 = 0.1 | 871 ± 2 | 1.412 ± 0.01 | 1261 ± 20
313 K, x1 = 0.35 | 1026 ± 2 | 1.433 ± 0.01 | 1401 ± 20
313 K, x1 = 0.54 | 1125 ± 2 | 1.448 ± 0.01 | 1506 ± 20
313 K, x1 = 0.661 | 1181 ± 3 | 1.456 ± 0.01 | 1574 ± 20
313 K, x1 = 0.79 | 1235 ± 3 | 1.465 ± 0.01 | 1631 ± 20
313 K, x1 = 0.931 | 1290 ± 3 | 1.474 ± 0.01 | 1713 ± 20
313 K, x1 = 1 | 1315 ± 4 | 1.479 ± 0.01 | 1775 ± 20

COS(=O)(=O)[O-].Cn1cc[n+](C)c1 [1,3-dimethylimidazolium methylsulfate] + CCCCO
Details | mass density, [2] [kg/m3] | refractive index, [1] | speed of sound, [2] [m/s]
298 K, x1 = 0.063 | 861 ± 3 | 1.405 ± 0.01 | 1263 ± 20
298 K, x1 = 0.221 | 982 ± 2 | 1.421 ± 0.01 | 1357 ± 20
298 K, x1 = 0.432 | 1108 ± 2 | 1.443 ± 0.01 | 1500 ± 20
298 K, x1 = 0.64 | 1205 ± 3 | 1.46 ± 0.01 | 1617 ± 20
298 K, x1 = 0.781 | 1258 ± 3 | 1.47 ± 0.01 | 1688 ± 20
298 K, x1 = 0.927 | 1307 ± 3 | 1.479 ± 0.01 | 1761 ± 20
298 K, x1 = 1 | 1329 ± 4 | 1.483 ± 0.01 | 1811 ± 20
303 K, x1 = 0.063 | 857 ± 3 | 1.401 ± 0.01 | 1246 ± 20
303 K, x1 = 0.221 | 977 ± 2 | 1.418 ± 0.01 | 1341 ± 20
303 K, x1 = 0.432 | 1102 ± 2 | 1.439 ± 0.01 | 1485 ± 20
303 K, x1 = 0.64 | 1198 ± 3 | 1.457 ± 0.01 | 1602 ± 20
303 K, x1 = 0.781 | 1252 ± 3 | 1.468 ± 0.01 | 1675 ± 20
303 K, x1 = 0.927 | 1300 ± 3 | 1.477 ± 0.01 | 1748 ± 20
303 K, x1 = 1 | 1322 ± 4 | 1.481 ± 0.01 | 1799 ± 20
308 K, x1 = 0.063 | 852 ± 3 | 1.398 ± 0.01 | 1229 ± 20
308 K, x1 = 0.221 | 972 ± 2 | 1.414 ± 0.01 | 1325 ± 20
308 K, x1 = 0.432 | 1097 ± 2 | 1.435 ± 0.01 | 1469 ± 20
308 K, x1 = 0.64 | 1193 ± 3 | 1.454 ± 0.01 | 1587 ± 20
308 K, x1 = 0.781 | 1248 ± 3 | 1.465 ± 0.01 | 1661 ± 20
308 K, x1 = 0.927 | 1297 ± 3 | 1.475 ± 0.01 | 1735 ± 20
308 K, x1 = 1 | 1319 ± 4 | 1.48 ± 0.01 | 1787 ± 20
313 K, x1 = 0.063 | 848 ± 3 | 1.395 ± 0.01 | 1213 ± 20
313 K, x1 = 0.221 | 967 ± 2 | 1.41 ± 0.01 | 1309 ± 20
313 K, x1 = 0.432 | 1092 ± 2 | 1.431 ± 0.01 | 1454 ± 20
313 K, x1 = 0.64 | 1189 ± 3 | 1.45 ± 0.01 | 1572 ± 20
313 K, x1 = 0.781 | 1243 ± 3 | 1.461 ± 0.01 | 1647 ± 20
313 K, x1 = 0.927 | 1293 ± 3 | 1.472 ± 0.01 | 1722 ± 20
313 K, x1 = 1 | 1315 ± 4 | 1.479 ± 0.01 | 1775 ± 20
